In patent US11434258B2, “Compounds (immunorhelins)” (ISR IMMUNE SYSTEM REGULATION HOLDING AB (PUBL), priority 2017, dated 2022) one finds half-life, activation and Solubility grading data, which are given here for 14 compounds.

Non-standard residues stand in square brackets, D forms with d. Residues, ends and D or L forms follow the SMILES beside them. *: point of attachment. dHis(τ-Bn) = N[C@H](Cc1cn(Cc2ccccc2)cn1)C(=O)O; d2Nal = N[C@H](Cc1ccc2ccccc2c1)C(=O)O; pGlu = O=C1CC[C@@H](C(=O)O)N1; tBu = CC(C)(C)*

A short description of data set [1]: Stability in aqueous media (PBS pH 7.4). The format is physicochemical. More on the design: unit not given here. To be noted: phosphate buffer solution (PBS); PBS pH 7.4, 37° C., samples at T=0, 4, 24, 96 h; read-out: Stability grading (t1/2). An excerpt:
LC/MS data was collected for compound identity.

A further data set deals with T1, GnRHR (Homo sapiens, UniProt P30968).
T1 construct: host or cells: CHO-K1 (CHO-K1/GnRHR/Ga15)
T1 sequence (P30968 1-328): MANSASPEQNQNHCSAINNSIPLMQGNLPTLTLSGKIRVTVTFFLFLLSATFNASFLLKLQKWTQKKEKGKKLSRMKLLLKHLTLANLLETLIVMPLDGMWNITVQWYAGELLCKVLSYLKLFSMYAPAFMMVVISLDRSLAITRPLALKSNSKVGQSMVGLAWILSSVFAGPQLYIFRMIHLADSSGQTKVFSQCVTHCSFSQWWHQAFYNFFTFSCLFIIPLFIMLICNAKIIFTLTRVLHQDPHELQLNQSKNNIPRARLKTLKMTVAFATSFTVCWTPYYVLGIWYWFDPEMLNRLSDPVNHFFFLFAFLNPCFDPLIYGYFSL
As to the kind of experiment: Calcium assay in CHO-K1 cells (Genscript), FLIPR. The format is cell-based. The following applies: CHO-K1/GnRHR/Ga15 cells, relative to agonist control, read-out: GNRHR Stimulation at 1 μM. How it is done:
Test article sample solutions were dissolved in HBSS buffer (with 20 mM HEPES buffer, pH 7.4) to form the 5× working solution. FLIPR® Calcium 4 assay kit from Molecular devices (R8141) was used as required. In brief, CHO-K1 cells expressing GnRHR (CHO-K1/GnRHR/Ga15, Genscript accession NM_000406) were respectively cultured in the 10-cm dishes and maintained at 37° C./5% CO2. CHO-K1 cells expressing GNRHR were respectively seeded in a 384-well black-wall, clear-bottom plate at a density of 15,000 cells per well in 20 μl of growth medium about 18 hours prior to the day of experiment and maintained at 37° C./5% CO2. Then, 20 μl of dye loading solution was added into the wells and the plates were subsequently placed into a 37° C. incubator for 60 minutes, followed by a 15 minutes' incubation at room temperature. At last, 10 μl of compounds or control agonist were added into respective wells of the assay plate during reading in FLIPR. The plate containing 5× compound and control agonist solution was placed in FLIPR. Solutions were added into the cell plate automatically at the 20 seconds and the fluorescence signal was monitored for an additional 100 seconds (21 sec to 120 sec.). Data were recorded by ScreenWorks (version 3.1) as FMD files with FLIPR and stored on the GenScript computer network for off-line analysis. Data acquisition and analyses was performed using ScreenWorks (version 3.1) program and exported to Excel. The average value of the first 20 seconds' reading was calculated as the baseline and the relative fluorescent units (ΔRFU) intensity values were calculated by subtracting the average value of baseline from the maximum fluorescent units (21 s to 120 s).
The % Stimulation was calculated with the following equation: % Stimulation=(ΔRFUCompound−ΔRFUBackground)/(ΔRFUAgonist control−ΔRFUBackground)×100
Dose response curves were fitted with four-parameter-logistic-equation by the software GraphPad Prism 6.
Equation: four parameter logistic equation. Y=Bottom+(Top-Bottom)/(1+10^((Log EC50−X)×Hillslope))
X is the logarithm of concentration. Y is the response.

Data set [2] can be described thus: Solubility in PBS (LC/UV AUC trend). The following applies: PBS pH 7.4, 0.2 mg/ml; rating 1 (good) to 5 (poor).

As for `CC(C)C[C@H](NC(=O)[C@@H](Cc1c[nH]c2ccccc12)NC(=O)[C@H](Cc1c[nH]cn1)NC(=O)[C@H](CO)NC(=O)[C@H](Cc1c[nH]c2ccccc12)NC(=O)[C@H](Cc1c[nH]cn1)NC(=O)[C@@H]1CCC(=O)N1)C(=O)N[C@@H](CCCNC(=N)N)C(=O)N1CCC[C@H]1C(=O)NCC(N)=O` [Compound 68, pGlu-His-Trp-Ser-His-D-Trp-Leu-Arg-Pro-Gly-amide] ([pGlu]HWSH[dW]LRPG-NH2), in data set [1], the half-life at 0.2 mg/ml is more than 96. Also, the activation at 1 µM at GnRHR turned out to be 86%. In data set [2], the Solubility grading is listed as 1.
In the case of `N=C(N)NCCC[C@H](NC(=O)[C@H](Cc1c[nH]c2ccccc12)NC(=O)[C@@H](Cc1ccc2ccccc2c1)NC(=O)[C@H](Cc1c[nH]cn1)NC(=O)[C@H](CO)NC(=O)[C@H](Cc1c[nH]c2ccccc12)NC(=O)[C@H](Cc1c[nH]cn1)NC(=O)[C@@H]1CCC(=O)N1)C(=O)N1CCC[C@H]1C(=O)NCC(N)=O` [Compound 27, pGlu-His-Trp-Ser-His-D-Nal-Trp-Arg-Pro-Gly-amide] ([pGlu]HWSH[d2Nal]WRPG-NH2), the half-life at 0.2 mg/ml in data set [1] is more than 96. Moreover, at GnRHR, the activation at 1 µM was determined as 108%. This compound showed a Solubility grading in data set [2] of 1.
In the case of `CCNC(=O)[C@@H]1CCCN1C(=O)[C@H](CCCNC(=N)N)NC(=O)[C@H](CC(C)C)NC(=O)[C@@H](COC(C)(C)C)NC(=O)[C@H](Cc1ccc(O)cc1)NC(=O)[C@H](CO)NC(=O)[C@H](Cc1c[nH]c2ccccc12)NC(=O)[C@H](Cc1cnc[nH]1)NC(=O)[C@@H]1CCC(=O)N1` [Buserelin acetate, reference compound], in data set [2], the Solubility grading is given as 1.
For the compound `N=C(N)NCCC[C@H](NC(=O)[C@H](Cc1c[nH]c2ccccc12)NC(=O)[C@@H](Cc1c[nH]c2ccccc12)NC(=O)[C@H](Cc1ccc(O)cc1)NC(=O)[C@H](CO)NC(=O)[C@H](Cc1c[nH]c2ccccc12)NC(=O)[C@H](Cc1c[nH]cn1)NC(=O)[C@@H]1CCC(=O)N1)C(=O)N1CCC[C@H]1C(=O)NCC(N)=O` [Compound 66, pGlu-His-Trp-Ser-Tyr-D-Trp-Trp-Arg-Pro-Gly-amide] ([pGlu]HWSY[dW]WRPG-NH2), in data set [1], the half-life at 0.2 mg/ml is more than 96. The activation at 1 µM on GnRHR was found to be 83%. In data set [2], this compound had a Solubility grading of 5.
Turning to `N=C(N)NCCC[C@H](NC(=O)[C@H](Cc1c[nH]c2ccccc12)NC(=O)[C@@H](Cc1ccc2ccccc2c1)NC(=O)[C@H](Cc1ccc(O)cc1)NC(=O)[C@H](CO)NC(=O)[C@H](Cc1c[nH]c2ccccc12)NC(=O)[C@H](Cc1c[nH]cn1)NC(=O)[C@@H]1CCC(=O)N1)C(=O)N1CCC[C@H]1C(=O)NCC(N)=O` [Compound 24, pGlu-His-Trp-Ser-Tyr-D-Nal-Trp-Arg-Pro-Gly-amide] ([pGlu]HWSY[d2Nal]WRPG-NH2), the half-life at 0.2 mg/ml in data set [1] was less than 96. The activation at 1 µM on GnRHR stood at 87%. The Solubility grading in data set [2] amounted to 5.
The matching figures for `CCNC(=O)[C@@H]1CCCN1C(=O)[C@H](Cc1ccc(O)cc1)NC(=O)[C@H](Cc1c[nH]c2ccccc12)NC(=O)[C@@H](Cc1cn(Cc2ccccc2)cn1)NC(=O)[C@H](Cc1c[nH]cn1)NC(=O)[C@H](CO)NC(=O)[C@H](Cc1c[nH]c2ccccc12)NC(=O)[C@H](Cc1c[nH]cn1)NC(=O)[C@@H]1CCC(=O)N1` [Compound 63, pGlu-His-Trp-Ser-His-D-Bhi-Trp-Tyr-Pro-NHEt] ([pGlu]HWSH[dHis(τ-Bn)]WYP-NHEt): less than 96, 77% and 5.
`CCNC(=O)[C@@H]1CCCN1C(=O)[C@H](CCCNC(=N)N)NC(=O)[C@H](Cc1c[nH]c2ccccc12)NC(=O)[C@@H](CC(C)C)NC(=O)[C@H](Cc1c[nH]cn1)NC(=O)[C@H](CO)NC(=O)[C@H](Cc1c[nH]c2ccccc12)NC(=O)[C@H](Cc1c[nH]cn1)NC(=O)[C@@H]1CCC(=O)N1` [Compound 47, pGlu-His-Trp-Ser-His-D-Leu-Trp-Arg-Pro-NHEt] ([pGlu]HWSH[dL]WRP-NHEt): the half-life at 0.2 mg/ml in data set [1] was more than 96. Further, the activation at 1 µM on GnRHR is 119%. Besides, in data set [2], the Solubility grading is 1.
As for `CCNC(=O)[C@@H]1CCCN1C(=O)[C@H](CCCNC(=N)N)NC(=O)[C@H](Cc1c[nH]c2ccccc12)NC(=O)[C@@H](CC(C)C)NC(=O)[C@H](Cc1ccc(O)cc1)NC(=O)[C@H](CO)NC(=O)[C@H](Cc1c[nH]c2ccccc12)NC(=O)[C@H](Cc1c[nH]cn1)NC(=O)[C@@H]1CCC(=O)N1` [Compound 44, pGlu-His-Trp-Ser-Tyr-D-Leu-Trp-Arg-Pro-NHEt] ([pGlu]HWSY[dL]WRP-NHEt), the half-life at 0.2 mg/ml in data set [1] was more than 96. The activation at 1 µM on GnRHR was 111%.
With `CC(C)C[C@H](NC(=O)[C@@H](Cc1c[nH]c2ccccc12)NC(=O)[C@H](Cc1c[nH]cn1)NC(=O)[C@H](CO)NC(=O)[C@H](Cc1c[nH]c2ccccc12)NC(=O)[C@H](Cc1c[nH]cn1)NC(=O)[C@@H]1CCC(=O)N1)C(=O)N[C@@H](Cc1ccc(O)cc1)C(=O)N1CCC[C@H]1C(=O)NCC(N)=O` [Compound 16, pGlu-His-Trp-Ser-His-D-Trp-Leu-Tyr-Pro-Gly-amide] ([pGlu]HWSH[dW]LYPG-NH2), the half-life at 0.2 mg/ml in data set [1] was more than 96. In addition, on GnRHR, the activation at 1 µM was 76%.
As to `CC(C)C[C@H](NC(=O)[C@@H](Cc1ccc2ccccc2c1)NC(=O)[C@H](Cc1c[nH]cn1)NC(=O)[C@H](CO)NC(=O)[C@H](Cc1c[nH]c2ccccc12)NC(=O)[C@H](Cc1c[nH]cn1)NC(=O)[C@@H]1CCC(=O)N1)C(=O)N[C@@H](Cc1ccc(O)cc1)C(=O)N1CCC[C@H]1C(=O)NCC(N)=O` [Compound 28, pGlu-His-Trp-Ser-His-D-Nal-Leu-Tyr-Pro-Gly-amide] ([pGlu]HWSH[d2Nal]LYPG-NH2), in data set [1], the half-life at 0.2 mg/ml was more than 96. Moreover, the activation at 1 µM at GnRHR was determined as 95%.
For `N=C(N)NCCC[C@H](NC(=O)[C@H](Cc1c[nH]c2ccccc12)NC(=O)[C@@H](Cc1c[nH]c2ccccc12)NC(=O)[C@H](Cc1c[nH]cn1)NC(=O)[C@H](CO)NC(=O)[C@H](Cc1c[nH]c2ccccc12)NC(=O)[C@H](Cc1c[nH]cn1)NC(=O)[C@@H]1CCC(=O)N1)C(=O)N1CCC[C@H]1C(=O)NCC(N)=O` [Compound 20, pGlu-His-Trp-Ser-His-D-Trp-Trp-Arg-Pro-NHEt], the half-life at 0.2 mg/ml in data set [1] was more than 96. Besides, the activation at 1 µM on GnRHR came out at 75%.
Take `CCNC(=O)[C@@H]1CCCN1C(=O)[C@H](Cc1ccc(O)cc1)NC(=O)[C@H](Cc1c[nH]c2ccccc12)NC(=O)[C@@H](COC(C)(C)C)NC(=O)[C@H](Cc1ccc(O)cc1)NC(=O)[C@H](CO)NC(=O)[C@H](Cc1c[nH]c2ccccc12)NC(=O)[C@H](Cc1c[nH]cn1)NC(=O)[C@@H]1CCC(=O)N1` [Compound 12, pGlu-His-Trp-Ser-Tyr-D-Ser(tBu)-Trp-Tyr-Pro-NHEt] ([pGlu]HWSY[dS](tBu)WYP-NHEt): the half-life at 0.2 mg/ml in data set [1] is more than 96. Besides, the activation at 1 µM on GnRHR was 80%.
On to `CCNC(=O)[C@@H]1CCCN1C(=O)[C@H](Cc1ccc(O)cc1)NC(=O)[C@H](CC(C)C)NC(=O)[C@@H](Cc1cn(Cc2ccccc2)cn1)NC(=O)[C@H](Cc1c[nH]cn1)NC(=O)[C@H](CO)NC(=O)[C@H](Cc1c[nH]c2ccccc12)NC(=O)[C@H](Cc1c[nH]cn1)NC(=O)[C@@H]1CCC(=O)N1` [Compound 61, pGlu-His-Trp-Ser-His-D-Bhi-Leu-Tyr-Pro-NHEt] ([pGlu]HWSH[dHis(τ-Bn)]LYP-NHEt), for which the half-life at 0.2 mg/ml in data set [1] was more than 96. In addition, at GnRHR, the activation at 1 µM stood at 112%.
Turning to `NC(=O)CNC(=O)[C@@H]1CCCN1C(=O)[C@H](Cc1ccc(O)cc1)NC(=O)[C@H](Cc1c[nH]c2ccccc12)NC(=O)[C@@H](Cc1ccc2ccccc2c1)NC(=O)[C@H](Cc1c[nH]cn1)NC(=O)[C@H](CO)NC(=O)[C@H](Cc1c[nH]c2ccccc12)NC(=O)[C@H](Cc1c[nH]cn1)NC(=O)[C@@H]1CCC(=O)N1` [Compound 33, pGlu-His-Trp-Ser-His-D-Nal-Trp-Tyr-Pro-Gly-amide] ([pGlu]HWSH[d2Nal]WYPG-NH2), the half-life at 0.2 mg/ml in data set [1] is less than 96. For the same compound, the activation at 1 µM at GnRHR is 67%.
